{
  "source": "paper PMC4061505",
  "about": "(Anesthesiology, 2014)",
  "key": {"α3β4-nAChR": {"tested_on": "α3β4-nAChR", "settings": "cited from earlier work; for IC50: α3β4-nAChR"}, "α7-nAChR [1]": {"tested_on": "α7-nAChR", "settings": "cited from earlier work"}, "[2]": {"tested_on": "monomeric serine racemase (m-SR)", "assay": "Expression of monomeric serine racemase protein in PC-12 cells", "type": "cell-based, rat", "settings": "for Concentration of maximum increase in m-SR protein expression: gradual decline at higher concentrations"}, "mTOR pathway": {"tested_on": "mTOR pathway", "assay": "pmTOR, pAkt, pERK, p4E-BP1 and pp70S6K levels in PC-12 cells", "type": "cell-based, rat"}, "NMDAR": {"tested_on": "NMDAR", "settings": "cited from earlier work"}, "[3]": {"tested_on": "mTOR and related proteins", "assay": "Western blot of phosphorylated mTOR and related proteins in rat brain", "settings": "20 mg·kg^−1 intravenous; for Increase in phosphorylation of mTOR and its downstream targets: rat pre-frontal cortex, 60-min post-administration, p<0.05"}, "[4]": {"assay": "Brain tissue concentrations after administration to male Wistar rats"}, "anesthesia": {"tested_on": "anesthesia", "settings": "cited from earlier work"}, "[5]": {"tested_on": "(S)-nicotine-induced currents in PC-12 cells", "settings": "cited from earlier work"}, "[6]": {"tested_on": "mTOR and related proteins", "settings": "cited from earlier work"}, "α7-nAChR [7]": {"tested_on": "α7-nAChR", "settings": "cited from earlier work", "remark": "listed apart in the source"}, "[8]": {"tested_on": "monomeric serine racemase (m-SR)", "settings": "PC-12 cells; compound alone; cited from earlier work"}, "[9]": {"settings": "time-dependent, significant in the 20- and 60-min samples"}, "[10]": {"settings": "after (R,S)-ketamine 40 mg·kg^−1 intraperitoneal, 10 min"}, "[11]": {"settings": "after (R,S)-ketamine 40 mg·kg^−1 intraperitoneal, 30 min"}, "[12]": {"settings": "after (R,S)-ketamine 40 mg·kg^−1 intraperitoneal, 60 min"}, "[13]": {"settings": "after (R,S)-ketamine 40 mg·kg^−1 intraperitoneal, 240 min"}, "[14]": {"settings": "after (R,S)-norketamine 20 mg·kg^−1 intravenous, 10 min"}, "[15]": {"settings": "after (R,S)-norketamine 20 mg·kg^−1 intravenous, 20 min"}, "[16]": {"settings": "after (R,S)-norketamine 20 mg·kg^−1 intravenous, 60 min"}, "[17]": {"settings": "after (R,S)-norketamine 20 mg·kg^−1 intravenous, 240 min"}},
  "note": "Values joined by “and” are separate entries in the source; they are usually repeats but may differ in a detail not shown here. Equal values may be shown once. Read-outs that look alike come from different tables or passages of the source.",
  "data": [
    {"molecule": "N[C@]1(c2ccccc2Cl)CCC[C@H](O)C1=O", "values": [
      {"measurement": "Activity at the α3β4-nAChR", "setting": "α3β4-nAChR", "result": "not active"},
      {"measurement": "IC50", "setting": "α3β4-nAChR", "result": "> 300", "unit": "µM"},
      {"measurement": "IC50", "setting": "α7-nAChR [1]", "result": "< 0.1", "unit": "µM"},
      {"measurement": "Increase in expression of serine racemase", "setting": "[2]; 0.05nM", "result": "~ 2 fold"},
      {"measurement": "Concentration of maximum increase in m-SR protein expression", "setting": "[2]; 36 h", "result": 0.05, "unit": "nM"},
      {"measurement": "Levels of phosphorylated mTOR, 4E-BP1, p70S6K, ERK1/2 and Akt and of m-SR protein", "setting": "mTOR pathway", "result": "significant increases"},
      {"measurement": "Concentration above which pmTOR increase was markedly reduced", "setting": "mTOR pathway; 60 min", "result": "greater than 1 nM"},
      {"measurement": "Activity at the NMDAR", "setting": "NMDAR", "result": "not active"},
      {"measurement": "Relative levels of pERK1/2 and pAkt", "setting": "[3]; increased in the 20- and 60-min samples", "result": "did not reach statistical significance"},
      {"measurement": "Increase in p4E-BP1", "setting": "[3]; [9]", "result": "~ 2.0 fold"},
      {"measurement": "Increase in pmTOR", "setting": "[3]; [9]", "result": "~ 2.0 fold"},
      {"measurement": "Increase in pp70S6K", "setting": "[3]; [9]", "result": "~ 2.5 fold"},
      {"measurement": "Increase in phosphorylation of mTOR and its downstream targets", "setting": "[3]", "result": "> 2", "unit": "fold"}
    ]},
    {"molecule": "CNC1(c2ccccc2Cl)CCCCC1=O", "note": "(racemic) [(R,S)-ketamine]", "values": [
      {"measurement": "IC50", "setting": "α3β4-nAChR", "result": 3, "unit": "µM"},
      {"measurement": "Increase in expression of serine racemase", "setting": "[2]; 1000nM", "result": "~ 2 fold"},
      {"measurement": "Concentrations with significant increase in m-SR expression (ANOVA)", "setting": "[2]; 36 h", "result": "600 nM and 1000 nM"},
      {"measurement": "Concentration of maximum increase in m-SR protein expression", "setting": "[2]; 36 h", "result": 600, "unit": "nM"},
      {"measurement": "Concentration required to produce the maximum effect on the mTOR pathway and m-SR expression", "setting": "mTOR pathway", "result": 600, "unit": "nM"},
      {"measurement": "Levels of phosphorylated mTOR, 4E-BP1, p70S6K, ERK1/2 and Akt and of m-SR protein", "setting": "mTOR pathway", "result": "significant increases"},
      {"measurement": "Concentration above which the increase lost significance", "setting": "mTOR pathway; 60 min", "result": "greater than 2000 nM"},
      {"measurement": "Concentrations eliciting significant increases in protein phosphorylation", "setting": "mTOR pathway; 60 min", "result": "400 to 600", "unit": "nM"},
      {"measurement": "Rat brain tissue conc. of (2S,6S;2R,6R)-HNK", "setting": "[4]; [10]", "result": "30 ± 5", "unit": "µM/g"},
      {"measurement": "Rat brain tissue conc. of (R,S)-Ket", "setting": "[4]; [10]", "result": "137 ± 6", "unit": "µM/g"},
      {"measurement": "Rat brain tissue conc. of (R,S)-norKet", "setting": "[4]; [10]", "result": "21 ± 8", "unit": "µM/g"},
      {"measurement": "Rat brain tissue conc. of (2S,6S;2R,6R)-HNK", "setting": "[4]; [11]", "result": "21 ± 8", "unit": "µM/g"},
      {"measurement": "Rat brain tissue conc. of (R,S)-Ket", "setting": "[4]; [11]", "result": "52 ± 44", "unit": "µM/g"},
      {"measurement": "Rat brain tissue conc. of (R,S)-norKet", "setting": "[4]; [11]", "result": "34 ± 6", "unit": "µM/g"},
      {"measurement": "Rat brain tissue conc. of (2S,6S;2R,6R)-HNK", "setting": "[4]; [12]", "result": "25 ± 5", "unit": "µM/g"},
      {"measurement": "Rat brain tissue conc. of (R,S)-Ket", "setting": "[4]; [12]", "result": "19 ± 9", "unit": "µM/g"},
      {"measurement": "Rat brain tissue conc. of (R,S)-norKet", "setting": "[4]; [12]", "result": "16 ± 4", "unit": "µM/g"},
      {"measurement": "Rat brain tissue conc. of (2S,6S;2R,6R)-HNK", "setting": "[4]; [13]", "result": "11 ± 5", "unit": "µM/g"},
      {"measurement": "Rat brain tissue conc. of (R,S)-Ket", "setting": "[4]; [13]", "result": "0.6 ± 0.1", "unit": "µM/g"},
      {"measurement": "Rat brain tissue conc. of (R,S)-norKet", "setting": "[4]; [13]", "result": "1.3 ± 0.3", "unit": "µM/g"},
      {"measurement": "Anesthetic activity", "setting": "anesthesia; rat", "result": "produce anesthesia"},
      {"measurement": "IC50", "setting": "[5]", "result": 5, "unit": "µM"},
      {"measurement": "Increase in the phosphorylated forms of mTOR pathway proteins", "setting": "[6]; Wistar rats, peaked at 30–60 min post-administration", "result": "~ 1.5 fold"},
      {"measurement": "Increase in pERK", "setting": "[6]", "result": 1.5, "unit": "fold"},
      {"measurement": "IC50", "setting": "α7-nAChR [7]", "result": 20, "unit": "µM"}
    ]},
    {"molecule": "NC1(c2ccccc2Cl)CCCCC1=O", "note": "(racemic) [(R,S)-norketamine]", "values": [
      {"measurement": "IC50", "setting": "α3β4-nAChR", "result": 9, "unit": "µM"},
      {"measurement": "Increase in expression of serine racemase", "setting": "[2]; 10nM", "result": "~ 2 fold"},
      {"measurement": "Concentration of maximum increase in m-SR protein expression", "setting": "[2]; 36 h", "result": 10, "unit": "nM"},
      {"measurement": "Levels of phosphorylated mTOR, 4E-BP1, p70S6K, ERK1/2 and Akt and of m-SR protein", "setting": "mTOR pathway", "result": "significant increases"},
      {"measurement": "Concentration above which the increase lost significance", "setting": "mTOR pathway; 60 min", "result": "greater than 250 nM"},
      {"measurement": "Rat brain tissue conc. of (2S,6S;2R,6R)-HNK", "setting": "[4]; [14]", "result": "16 ± 3", "unit": "µM/g"},
      {"measurement": "Rat brain tissue conc. of (R,S)-norKet", "setting": "[4]; [14]", "result": "88 ± 8", "unit": "µM/g"},
      {"measurement": "Rat brain tissue conc. of (2S,6S;2R,6R)-HNK", "setting": "[4]; [15]", "result": "16 ± 3", "unit": "µM/g"},
      {"measurement": "Rat brain tissue conc. of (R,S)-norKet", "setting": "[4]; [15]", "result": "51 ± 4", "unit": "µM/g"},
      {"measurement": "Rat brain tissue conc. of (2S,6S;2R,6R)-HNK", "setting": "[4]; [16]", "result": "8.9 ± 0.7", "unit": "µM/g"},
      {"measurement": "Rat brain tissue conc. of (R,S)-norKet", "setting": "[4]; [16]", "result": "20 ± 7", "unit": "µM/g"},
      {"measurement": "Rat brain tissue conc. of (2S,6S;2R,6R)-HNK", "setting": "[4]; [17]", "result": "2.1 ± 0.4", "unit": "µM/g"},
      {"measurement": "Rat brain tissue conc. of (R,S)-norKet", "setting": "[4]; [17]", "result": "1.0 ± 0.1", "unit": "µM/g"},
      {"measurement": "Anesthetic activity", "setting": "anesthesia; rat", "result": "produce anesthesia"},
      {"measurement": "Relative pAkt levels", "setting": "[3]", "result": "not impacted"},
      {"measurement": "Levels of phosphorylated forms of mTOR, pp70S6K and p4E-BP1", "setting": "[3]; 20- and 60-min samples", "result": "significant increases"},
      {"measurement": "Increase in pmTOR levels", "setting": "[3]; 20-min sample", "result": 15, "unit": "fold"},
      {"measurement": "Increase in pmTOR levels", "setting": "[3]; 60-min sample", "result": 25, "unit": "fold"},
      {"measurement": "Increase in pERK level", "setting": "[3]; significant", "result": "~ 6 fold"},
      {"measurement": "Increase in phosphorylation of mTOR and its downstream targets", "setting": "[3]", "result": "> 25", "unit": "fold"}
    ]},
    {"molecule": "N[C@@]1(c2ccccc2Cl)CCC[C@@H](O)C1=O", "note": "[(2R,6R)-hydroxynorketamine]", "values": [
      {"measurement": "Activity at the α3β4-nAChR", "setting": "α3β4-nAChR", "result": "not active"},
      {"measurement": "IC50", "setting": "α7-nAChR [1]", "result": "< 0.1", "unit": "µM"},
      {"measurement": "Activity at the NMDAR", "setting": "NMDAR", "result": "not active"}
    ]},
    {"molecule": "N[C@@]1(c2ccccc2Cl)CCC[C@@H](O)C1=O", "note": "[(2S,6S;2R,6R)-hydroxynorketamine]", "values": [
      {"measurement": "Anesthetic activity", "setting": "anesthesia; rat", "result": "no anesthetic effect"},
      {"measurement": "Anesthetic activity", "setting": "anesthesia; rat; ref 9;2R,6R)-Hydroxynorketamine", "result": "lacks anesthetic activity"}
    ]},
    {"molecule": "CN1CCC[C@H]1c1cccnc1", "note": "[(S)-nicotine]", "values": [
      {"measurement": "Effect on expression of m-SR", "setting": "[8]", "result": "no effect"},
      {"measurement": "Effect on the phosphorylation of pmTOR, p4E-BP1, pp70S6K, pERK1/2 and pAkt", "setting": "mTOR pathway; (S)-nicotine alone, 2 μM, 1 h", "result": "no effect"}
    ]},
    {"molecule": "CCN1C[C@]2(COC(=O)c3ccccc3N3C(=O)C[C@H](C)C3=O)CC[C@H](OC)[C@@]34[C@@H]5C[C@H]6[C@H](OC)[C@@H]5[C@](O)(C[C@@H]6OC)[C@@](O)([C@@H](OC)[C@H]23)[C@@H]14", "note": "[methyllycaconitine]", "values": [
      {"measurement": "Effect on expression of m-SR", "setting": "[8]", "result": "significantly increases"},
      {"measurement": "Levels of phosphorylated mTOR, 4E-BP1, p70S6K, ERK1/2 and Akt and of m-SR protein", "setting": "mTOR pathway", "result": "significant increases"}
    ]}
  ]
}
